Data from patent US20100168102A9, “Amide Derivatives as Kinase Inhibitors” (Devgen NV, priority 2005, published 2010).

What follows are molecules tested against T1, PKC epsilon (Homo sapiens, UniProt Q02156) (assay: Biochemical assay for PKC epsilon (fluorescence polarization, Protein Kinase C Assay Kit, Red)). Conditions: Table 2, compounds of Formula XIII; read-out: IC50 μM PKCε.
T1 construct: purchased Invitrogen P2282
T1 sequence (Q02156 1-737): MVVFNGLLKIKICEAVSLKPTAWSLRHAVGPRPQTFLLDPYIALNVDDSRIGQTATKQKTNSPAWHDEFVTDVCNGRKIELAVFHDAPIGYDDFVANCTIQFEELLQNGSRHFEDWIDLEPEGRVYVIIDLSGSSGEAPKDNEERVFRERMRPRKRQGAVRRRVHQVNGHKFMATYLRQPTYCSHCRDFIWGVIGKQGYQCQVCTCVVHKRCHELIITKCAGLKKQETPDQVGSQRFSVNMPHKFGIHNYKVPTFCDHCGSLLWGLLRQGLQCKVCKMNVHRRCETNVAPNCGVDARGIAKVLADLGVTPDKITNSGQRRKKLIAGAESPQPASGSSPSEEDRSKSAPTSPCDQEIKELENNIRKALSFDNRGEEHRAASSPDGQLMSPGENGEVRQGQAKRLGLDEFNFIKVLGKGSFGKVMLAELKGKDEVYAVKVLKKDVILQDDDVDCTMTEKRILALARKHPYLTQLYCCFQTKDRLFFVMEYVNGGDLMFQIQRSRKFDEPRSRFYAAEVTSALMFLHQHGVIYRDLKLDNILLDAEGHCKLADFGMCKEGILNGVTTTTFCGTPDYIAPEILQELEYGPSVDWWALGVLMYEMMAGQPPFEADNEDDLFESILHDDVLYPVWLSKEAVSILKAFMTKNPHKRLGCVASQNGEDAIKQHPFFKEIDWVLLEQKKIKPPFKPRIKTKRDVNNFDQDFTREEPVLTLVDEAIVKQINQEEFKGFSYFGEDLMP
Description: The compounds were tested for inhibition of PKC epsilon.
The inhibition assays were performed with a fluorescence polarization (FP) assay using the commercially available Protein Kinase C Assay Kit, Red, from Invitrogen (Product ID. No. P2941), essentially in accordance with the protocol supplied by the manufacturer. […] The isozyme PKC epsilon was also obtained from Invitrogen (Product ID No. P2282).
Staurosporine was used as a positive control (2 μM).
To perform the assay, 2 μl of a solution of the compound to be tested in DMSO (at each concentration) was added to 6 μl of a solution of the enzyme in 10 mM HEPES, 5 mM dithiotreitol, 0.1% Triton X-100, pH 7.4. The final concentration of the enzymes was 10 ng/ml.
After incubating for 30 minutes at room temperature, 4 μl of a mixture of ATP and the protein substrate in 60 mM HEPES (pH7.4), 15 mM MgCl2, 0.3 mM CaCl2, 0.06% NP40 was added.
After incubating for 80 minutes at room temperature, 3 μl of a mix solution of 500 mM EDTA (stop solution) and the Rhodamine-based PKC Red Tracer (from the Protein Kinase C Assay Kit) in BGG/phosphate buffer (pH7.4) with 0.02% NaN3 and 0.1% Triton X-100 was added and 5 μl of a the Anti-Phosphoserine antibody (also from the Protein Kinase C Assay Kit) in BGG/phosphate buffer (pH7.4) with 0.02% NaN3.
The results were fitted to a curve using the XL-Fit algorithm and […] were calculated for each fitted curve, again using the XL-Fit algorithm.

First: NC(CNC(=O)Cc1ccc(Cl)c(Cl)c1)c1ccc(C(=O)Nc2ccncc2)cc1 (stereo not drawn) [Compound 329, 4-{1-Amino-2-[2-(3,4-dichloro-phenyl)-acetylamino]-ethyl}-N-pyridin-4-yl-benzamide]
Second: CCC(CC)(C(=O)NCC(N)c1ccc(C(=O)Nc2ccncc2)cc1)c1ccccc1 (stereo not drawn) [Compound 334, 4-[1-Amino-2-(2-ethyl-2-phenyl-butyrylamino)-ethyl]-N-pyridin-4-yl-benzamide]
The IC50 of the first is higher: 0.05 to 0.5 µM for the first, less than 0.05 µM for the second.

First: 4-(1-Amino-2-{[1-(4-fluoro-phenyl)- cyclobutanecarbonyl]-amino}-ethyl)- N-pyridin-4-yl-benzamide [Compound 338]
Second: 4-(1-Amino-2-{[1-(4-chloro-phenyl)- cyclobutanecarbonyl]-amino}-ethyl)- N-pyridin-4-yl-benzamide [Compound 337]
The IC50 of the first is lower: less than 0.05 µM for the first, 0.05 to 0.5 µM for the second. The first is the more potent here.

First: NC(CNC(=O)Cc1ccc(F)cc1Cl)c1ccc(C(=O)Nc2ccncc2)cc1 (stereo not drawn) [Compound 332, 4-{1-Amino-2-[2-(2-chloro-4-fluoro-phenyl)-acetylamino]-ethyl}-N-pyridin-4-yl-benzamide]
Second: 4-(1-Amino-2-{[1-(4-fluoro-phenyl)- cyclohexanecarbonyl]-amino}-ethyl)- N-pyridin-4-yl-benzamide [Compound 343]
The IC50 of the first is higher: 0.05 to 0.5 µM for the first, less than 0.05 µM for the second. The second is the more potent here.

Compared with `NC(CNC(=O)Cc1ccc(F)c(Cl)c1)c1ccc(C(=O)Nc2ccncc2)cc1` (stereo not drawn) [Compound 330, 4-{1-Amino-2-[2-(3-chloro-4-fluoro-phenyl)-acetylamino]-ethyl}-N-pyridin-4-yl-benzamide], `NC(CNC(=O)C1(c2ccc(F)cc2Cl)CCCC1)c1ccc(C(=O)Nc2ccncc2)cc1` (stereo not drawn) [Compound 342, 4-(1-Amino-2-{[1-(2-chloro-4-fluoro-phenyl)-cyclopentanecarbonyl]-amino}-ethyl)-N-pyridin-4-yl-benzamide] is lower in IC50: 0.05 to 0.5 µM for the first, less than 0.05 µM for the second. The second is the more potent here.

First: NC(CNC(=O)C1CCc2ccccc21)c1ccc(C(=O)Nc2ccncc2)cc1 (stereo not drawn) [Compound 351, Indan-1-carboxylic acid {2-amino-2-[4-(pyridin-4-ylcarbamoyl)-phenyl]-ethyl}-amide]
Second: CC(C)(C(=O)NCC(N)c1ccc(C(=O)Nc2ccncc2)cc1)c1ccc(F)c(F)c1 (stereo not drawn) [Compound 376, 4-{1-Amino-2-[2-(3,4-difluoro-phenyl)-2-methyl-propionylamino]-ethyl}-N-pyridin-4-yl-benzamide]
The IC50 of the first is higher: 0.05 to 0.5 µM for the first, less than 0.05 µM for the second.

`NC(CNC(=O)Cc1ccccc1)c1ccc(C(=O)Nc2ccncc2)cc1` (stereo not drawn) [Compound 328, 4-(1-Amino-2-phenylacetylamino-ethyl)-N-pyridin-4-yl-benzamide] and `NC(CNC(=O)C1CCCc2ccccc21)c1ccc(C(=O)Nc2ccncc2)cc1` (stereo not drawn) [Compound 350, 1,2,3,4-Tetrahydro-naphthalene-1-carboxylic acid {2-amino-2-[4-(pyridin-4-ylcarbamoyl)-phenyl]-ethyl}-amide] fall in the same range of IC50: 0.05 to 0.5 µM for the first, 0.05 to 0.5 µM for the second.

First: NC(CNC(=O)C1CCc2cc(Cl)ccc21)c1ccc(C(=O)Nc2ccncc2)cc1 (stereo not drawn) [Compound 352, 5-Chloro-indan-1-carboxylic acid {2-amino-2-[4-(pyridin-4-ylcarbamoyl)-phenyl]-ethyl}-amide]
Second: 7-Fluoro-indan-1-carboxylic acid {2- amino-2-[4-(pyridin-4-ylcarbamoyl)- phenyl]-ethyl}-amide [Compound 353]
The IC50 of the first is lower: less than 0.05 µM for the first, 0.05 to 0.5 µM for the second. The first is the more potent here.

`NC(CNC(=O)C1(c2cccc(F)c2)CCCC1)c1ccc(C(=O)Nc2ccncc2)cc1` (stereo not drawn) [Compound 341, 4-(1-Amino-2-{[1-(3-fluoro-phenyl)-cyclopentanecarbonyl]-amino}-ethyl)-N-pyridin-4-yl-benzamide] and `NC(CNC(=O)Cc1ccc(Cl)cc1F)c1ccc(C(=O)Nc2ccncc2)cc1` (stereo not drawn) [Compound 333, 4-{1-Amino-2-[2-(4-chloro-2-fluoro-phenyl)-acetylamino]-ethyl}-N-pyridin-4-yl-benzamide] fall in the same range of IC50: 0.05 to 0.5 µM for the first, 0.05 to 0.5 µM for the second.

First: NC(CNC(=O)C1CCc2ccc(F)cc21)c1ccc(C(=O)Nc2ccncc2)cc1 (stereo not drawn) [Compound 354, 6-Fluoro-indan-1-carboxylic acid {2-amino-2-[4-(pyridin-4-ylcarbamoyl)-phenyl]-ethyl}-amide]
Second: NC(CNC(=O)Cc1cc(F)ccc1F)c1ccc(C(=O)Nc2ccncc2)cc1 (stereo not drawn) [Compound 331, 4-{1-Amino-2-[2-(2,5-difluoro-phenyl)-acetylamino]-ethyl}-N-pyridin-4-yl-benzamide]
The IC50 of the first is lower: 0.05 to 0.5 µM for the first, 0.5 to 5 µM for the second.

With `NC(CNC(=O)C1(c2ccc(F)cc2)CCCC1)c1ccc(C(=O)Nc2ccncc2)cc1` (stereo not drawn) [Compound 336, 4-(1-Amino-2-{[1-(4-fluoro-phenyl)-cyclopentanecarbonyl]-amino}-ethyl)-N-pyridin-4-yl-benzamide] the IC50 was less than 0.05 µM.

Same assay, conditions: compounds of Formula XIV, Table 3; read-out: IC50 μM PKCε

`NC(CC(=O)NC1COc2ccccc21)c1ccc(C(=O)Nc2ccncc2)cc1` (stereo not drawn) [Compound 366, 4-[1-Amino-2-(2,3-dihydro-benzofuran-3-ylcarbamoyl)-ethyl]-N-pyridin-4-yl-benzamide] and `NC(CC(=O)NC1CCSc2ccccc21)c1ccc(C(=O)Nc2ccncc2)cc1` (stereo not drawn) [Compound 360, 4-[1-Amino-2-(thiochroman-4-ylcarbamoyl)-ethyl]-N-pyridin-4-yl-benzamide] fall in the same range of IC50: 0.05 to 0.5 µM for the first, 0.05 to 0.5 µM for the second.

“4-[1-Amino-2-(5-fluoro- indan-1-ylcarbamoyl)-ethyl]- N-pyridin-4-yl-benzamide [Compound 361]” and “4-[1-Amino-2-(6-fluoro- indan-1-ylcarbamoyl)-ethyl]- N-pyridin-4-yl-benzamide [Compound 362]” fall in the same range of IC50: 0.05 to 0.5 µM for the first, 0.05 to 0.5 µM for the second.

Compared with `NC(CC(=O)NC(c1ccc(Cl)cc1)C1CC1)c1ccc(C(=O)Nc2ccncc2)cc1` (stereo not drawn) [Compound 368, 4-(1-Amino-2-{[(4-chloro-phenyl)-cyclopropyl-methyl]-carbamoyl}-ethyl)-N-pyridin-4-yl-benzamide], `NC(CC(=O)NC1CCCc2sccc21)c1ccc(C(=O)Nc2ccncc2)cc1` (stereo not drawn) [Compound 367, 4-[1-Amino-2-(4,5,6,7-tetrahydro-benzo[b]thiophen-4-ylcarbamoyl)-ethyl]-N-pyridin-4-yl-benzamide] is lower in IC50: 0.5 to 5 µM for the first, 0.05 to 0.5 µM for the second.

`NC(CC(=O)NC(c1ccc(F)cc1)C1CCC1)c1ccc(C(=O)Nc2ccncc2)cc1` (stereo not drawn) [Compound 369, 4-(1-Amino-2-{[cyclobutyl-(4-fluoro-phenyl)-methyl]-carbamoyl}-ethyl)-N-pyridin-4-yl-benzamide] and `NC(CC(=O)NC1CCOc2ccccc21)c1ccc(C(=O)Nc2ccncc2)cc1` (stereo not drawn) [Compound 359, 4-[1-Amino-2-(chroman-4-ylcarbamoyl)-ethyl]-N-pyridin-4-yl-benzamide] fall in the same range of IC50: 0.05 to 0.5 µM for the first, 0.05 to 0.5 µM for the second.
